Laboratory results reported in publication PMC8457056, “Remodeling of the Fibrillation Pathway of α‐Synuclein by Interaction with Antimicrobial Peptide LL‐III” (Chemistry (Weinheim an Der Bergstrasse, Germany), 2021).

Test system: neuronal SH‐SY5Y cells stably expressing an α‐Syn‐GFP fusion protein
Test: PFF-induced α-Syn-GFP aggregation in SH-SY5Y cells (structured-illumination microscopy)
Format: cell-based
Conditions: 1 μM LL-III 1 h before PFF; for cells with α‐Syn‐GFP aggregates: 5 independent experiments, at least 150 cells per condition
Procedure: Finally, to test the anti‐aggregation activity of LL‐III in a cellular model, we used the α‐Syn pre‐formed fibril (PFF) model, which involves conversion of recombinant monomeric α‐Syn protein into fibrillar seeds that were added to neuronal SH‐SY5Y cells stably expressing an α‐Syn‐GFP fusion protein.[32, 33] In brief, untreated cells expressed soluble α‐Syn‐GFP that was rather homogenously distributed throughout the cells (Figure 3, left panel). Treatment of cells with PFF seeds caused aggregation of α‐Syn‐GFP, reflected by the formation of GFP‐positive foci (Figure 3, middle and right panel). These α‐Syn‐GFP aggregates could be visualized already 24 h after PFF treatment by fluorescence super‐resolution structured illumination microscopy.
Figure 3 LL‐III decreases PFF‐induced α‐Syn aggregation in neuronal cells. SH‐SY5Y cells stably expressing α‐Syn‐GFP were pre‐treated without or with LL‐III 1 h before adding PFF seeds to induce α‐Syn aggregation. A. α‐Syn was visualized by structured‐illumination microscopy 24 h and 48 h after PFF treatment. Green: α‐Syn (GFP), blue: nuclei (DAPI). B. Quantification of cells with α‐Syn aggregates was based on 5 independent experiments. In total, at least 150 cells were counted per condition. Data were processed by a Kolmogorov‐Smirnov test for Gaussian distribution followed by an unpaired two‐tailed Student's t‐test. *** p≤0.001.
LL‐III was pre‐incubated with α‐Syn‐GFP‐expressing SH‐SY5Y cells at a concentration of 1 μM one hour before PFF treatment to allow cellular uptake of LL‐III. The number of cells with α‐Syn‐GFP aggregates was quantified 24 h and 48 h after PFF seeding. […]
µM) and following the anisotropy changes of the Trp residue. […] The anisotropy was evaluated at 354 nm which corresponds to the maximum of emission of the free peptide. […]
Far-UV circular dichroism (CD) spectra were recorded by using a Jasco J- 715 spectropolarimeter from Jasco Cor-poration (Tokyo, Japan). […] A blank spectrum of 20 mM sodium acetate buffer, pH 5.0, was recorded and subtracted from all the samples spectra. […]

NH2-VNWKKIL GKIIKVVK -CONH2 [LL‐III]
cells with α‐Syn‐GFP aggregates (24 h after PFF seeding, without LL-III 48 %): 30% | change in number of cells with aggregates (24 h and 48 h): significantly decreased | cells with α‐Syn‐GFP aggregates (48 h after PFF seeding, without LL-III 54 %): 36%
